Patent US20240270699A1, “COMPOUNDS HAVING N-ARYLPYRIMIDIN-2-AMINE DERIVATIVES AS THERAPEUTIC AGENTS” (Lomond Therapeutics, Inc., priority 2021, published 2024)

Assays:
Jurkat cells = experiment: IL-2 release Jurkat assay (anti-CD3/anti-CD28 stimulation, IL-2 ELISA); assay type: cell-based, human; conditions: activation with 400 ng/mL aCD3 + 400 ng/mL aCD28, 24 hours
recombinant HPK1 protein = molecular target: T1, recombinant HPK1 protein (Homo sapiens, UniProt Q92918); experiment: Primary assay of HPK1 enzymatic activity inhibition (ADP-Glo luminescence); assay type: biochemical; conditions: recombinant HPK1, MBP substrate, 1 hour at room temperature
T1 construct: purchased Promega V6398
T1 sequence (Q92918 1-346 limits assumed): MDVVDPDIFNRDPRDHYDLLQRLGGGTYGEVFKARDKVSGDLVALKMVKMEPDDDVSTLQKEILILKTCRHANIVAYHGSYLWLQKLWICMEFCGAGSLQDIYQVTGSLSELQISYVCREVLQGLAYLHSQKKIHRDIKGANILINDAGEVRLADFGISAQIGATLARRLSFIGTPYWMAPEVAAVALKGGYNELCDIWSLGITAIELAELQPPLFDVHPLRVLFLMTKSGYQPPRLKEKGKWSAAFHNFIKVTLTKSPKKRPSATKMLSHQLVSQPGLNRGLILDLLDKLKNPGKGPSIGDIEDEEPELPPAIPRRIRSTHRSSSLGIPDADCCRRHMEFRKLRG

[1] = Table G: Jurkat, 1.0 μM of tested compounds

Structure (SMILES) | IC50 (recombinant HPK1 protein) [nM] | IL-2, pg/mL stimulated (Jurkat cells; [1]) | IL-2, pg/mL stimulated (Jurkat cells; Table B: Jurkat, 1.5 μM of tested compounds)
O=C1NCc2cc(Nc3ncc(-c4nc(CN5CCCC5)no4)c(N[C@H](CO)c4ccccc4)n3)ccc21 [Compound 587, 5-[[4-[[(1S)-2-hydroxy-1-phenyl-ethyl]amino]-5-[3-(pyrrolidin-1-ylmethyl)-1,2,4-oxadiazol-5-yl]pyrimidin-2-yl]amino]isoindolin-1-one] | < 50 | D (150 pg/mL≤IL-2) | 
O=C(NC1CCCC1)c1cnc(Nc2ccc(F)c(-c3ccccc3)c2)nc1N[C@H](CO)c1ccccc1 [Compound 440, N-cyclopentyl-2-[(6-fluorobiphenyl-3-yl)amino]-4-{[(1S)-2-hydroxy-1-phenylethyl]amino}pyrimidine-5-carboxamide] | ≥ 500 |  | 
CCOC(=O)c1cnc(Nc2ccc3c(c2)NC(=O)CCC3)nc1N[C@H](CO)c1ccccc1 [Compound 574, ethyl 4-[[(1S)-2-hydroxy-1-phenyl-ethyl]amino]-2-[(2-oxo-1,3,4,5-tetrahydro-1-benzazepin-8-yl)amino]pyimidine-5-carboxylate] | ≥ 500 |  | 
Cc1noc(-c2cnc(Nc3ccc4c(c3)CCN(COC(=O)C(C)(C)C)C4=O)nc2N[C@H](CO)c2ccccc2)n1 [Compound 581, [6-[[4-[[(1S)-2-hydroxy-1-phenyl-ethyl]amino]-5-(3-methyl-1,2,4-oxadiazol-5-l)pyrimidin-2-yl]amino]-1-oxo-3,4-dihydroisoquinolin-2-yl]methyl 2,2-dimethylpropanoate] |  | D (150 pg/mL≤IL-2) | 
CS(=O)(=O)c1ccc(Nc2ncc(C#N)c(N[C@H](CO)c3ccccc3)n2)cc1F [Compound 2, 2-{[3-fluoro-4-(methylsulfonyl)phenyl]amino}-4-{[(1S)-2-hydroxy-1-phenylethyl]amino}pyrimidine-5-carbonitrile] | ≥ 500 |  | 
N#Cc1cnc(Nc2ccc3c(c2)CCNC3=O)nc1N[C@H](CO)c1ccccc1 [Compound 567, 4-[[(1S)-2-hydroxy-1-phenyl-ethyl]amino]-2-[(1-oxo-3,4-dihydro-2H-isoquinolin-6-yl)amino]pyrimidine-5-carbonitrile] | ≥ 500 |  | 
CS(=O)(=O)c1ccc(Nc2ncc(C(=O)O)c(N[C@H](CO)c3ccccc3)n2)cc1F [Compound 42, 2-{[3-fluoro-4-(methylsulfonyl)phenyl]amino}-4-{[(1S)-2-hydroxy-1-phenylethyl]amino}pyrimidine-5-carboxylic Acid] | ≥ 500 |  | 
CCOC(=O)c1cnc(Nc2ccc(S(C)(=O)=O)cc2OC)nc1N[C@H](CO)c1ccccc1 [Compound 299, Ethyl 4-{[(1S)-2-hydroxy-1-phenylethyl]amino}-2-{[2-methoxy-4-(methylsulfonyl)phenyl]amino}pyrimidine-5-carboxylate] | ≥ 500 |  | 
CN(CCO)C(=O)c1cnc(Nc2ccc(S(C)(=O)=O)c(F)c2)nc1N[C@H](CO)c1ccccc1 [Compound 402, 2-(3-fluoro-4-methylsulfonyl-anilino)-N-(2-hydroxyethyl)-4-[[(1S)-2-hydroxy-1-phenyl-ethyl]amino]-N-methyl-pyrimidine-5-carboxamide] | ≥ 500 |  | 
CCOC(=O)c1cnc(Nc2ccc3c(c2)CCN(C(C)C)C3=O)nc1N[C@H](CO)c1ccccc1 [Compound 316, Ethyl 4-[[(1S)-2-hydroxy-1-phenyl-ethyl]amino]-2-[(2-isopropyl-1-oxo-3,4-dihydroisoquinolin-6-yl)amino]pyrimidine-5-carboxylate] | ≥ 500 |  | 
C=Cc1noc(-c2cnc(Nc3ccc4c(c3)CCN(COCC[Si](C)(C)C)C4=O)nc2N[C@H](CO)c2ccccc2)n1 [Compound 580, 6-[[4-[[(1S)-2-hydroxy-1-phenyl-ethyl]amino]-5-(3-vinyl-1,2,4-oxadiazol-5-yl)pyrimidin-2-yl]amino]-2-(2-trimethylsilylethoxymethyl)-3,4-dihydroisoquinolin-1-one] | < 50 |  | 
CS(=O)(=O)c1ccc(Nc2ncc3[nH]c(=O)n([C@H](CO)c4ccccc4)c3n2)cc1F [Compound 577, 2-(3-fluoro-4-methylsulfonyl-anilino)-9-[(1S)-2-hydroxy-1-phenyl-ethyl]-7H-purin-8-one] | ≥ 500 |  | 
CCOC(=O)c1cnc(Nc2ccc(C(F)(F)F)c(Cl)c2)nc1N[C@H](CO)c1ccccc1 [Compound 248, Ethyl 2-{[3-chloro-4-(trifluoromethyl)phenyl]amino}-4-{[(1S)-2-hydroxy-1-phenylethyl]amino}pyrimidine-5-carboxylate] | ≥ 500 |  | 
CCOC(=O)c1cnc(Nc2ccc3c(c2)C(=O)NC(C(C)C)C(=O)N3)nc1N[C@H](CO)c1ccccc1 (stereo partly drawn) [Compound 467, Ethyl 4-[[(1S)-2-hydroxy-1-phenyl-ethyl]amino]-2-[(3-isopropyl-2,5-dioxo-3,4-dihydro-1H-1,4-benzodiazepin-7-yl)amino]pyrimidine-5-carboxylate] | ≥ 500 |  | 
CCOC(=O)c1cnc(Nc2ccc3c(c2)CNC3=O)nc1N[C@H](CO)c1ccccc1 [Compound 565, ethyl 4-[[(1S)-2-hydroxy-1-phenyl-ethyl]amino]-2-[(1-oxoisoindolin-5-yl)amino]pyrimidine-5-carboxylate] | < 50 |  | 
CCOC(=O)c1cnc(Nc2ccc(S(C)(=O)=O)c(F)c2)nc1N1Cc2ccccc2CC1CO (stereo not drawn) [Compound 388, ethyl 2-(3-fluoro-4-methylsulfonyl-anilino)-4-[3-(hydroxymethyl)-3,4-dihydro-1H-isoquinolin-2-yl]pyrimidine-5-carboxylate] | ≥ 500 |  | 
CCOC(=O)c1cnc(Nc2ccc(S(C)(=O)=O)c(F)c2)nc1N[C@H](C)c1ccccc1 [Compound 97, ethyl 2-(3-fluoro-4-methylsulfonyl-anilino)-4-[[(1R)-1-phenylethyl]amino]pyrimidine-5-carboxylate] | ≥ 500 |  | 

Second part, led by results:

IC50 (recombinant HPK1 protein) [nM] | Structure (SMILES) | IL-2, pg/mL stimulated (Jurkat cells; [1]) | IL-2, pg/mL stimulated (Jurkat cells; Table B: Jurkat, 1.5 μM of tested compounds)
200 to 500 | O=C(NCC(F)(F)F)c1cnc(Nc2ccc(F)c(-c3ccccc3)c2)nc1N[C@H](CO)c1ccccc1 [Compound 499, 2-[(6-fluorobiphenyl-3-yl)amino]-4-{[(1S)-2-hydroxy-1-phenylethyl]-amino}-N-(2,2,2-trifluoroethyl)pyrimidine-5-carboxamide] |  | C (25.0 pg/mL≤IL-2<35.0 pg/mL)
< 50 | Cc1noc(-c2cnc(Nc3ccc4c(c3)CCN(C)C4=O)nc2N[C@H](CO)c2ccccc2)n1 [Compound 183, 6-[[4-[[(1S)-2-hydroxy-1-phenyl-ethyl]amino]-5-(3-methyl-1,2,4-oxadiazol-5-yl)pyrimidin-2-yl]amino]-2-methyl-3,4-dihydroisoquinolin-1-one] |  | 
50 to 200 | CCOC(=O)c1cnc(N(c2ccc3c(c2)CCCNC3=O)c2ncc(C(=O)OCC)c(N[C@H](CO)c3ccccc3)n2)nc1N[C@H](CO)c1ccccc1 [Compound 576, ethyl 2-[[5-ethoxycarbonyl-4-[[(1S)-2-hydroxy-1-phenyl-ethyl]amino]pyrimidin-2-yl]-(1-oxo-2,3,4,5-tetrahydro-2-benzazepin-7-yl)amino]-4-[[(1S)-2-hydroxy-1-phenyl-ethyl]amino]pyrimidin-5-carboxylate] |  | 
≥ 500 | CS(=O)(=O)c1ccc(Nc2ncc(C(=O)N3CCCC3)c(N[C@H](CO)c3ccccc3)n2)cc1F [Compound 371, [2-(3-fluoro-4-methylsulfonyl-anilino)-4-[[(1S)-2-hydroxy-1-phenyl-ethyl]amino]pyrimidin-5-yl]-pyrrolidin-1-yl-methanone] |  | 
≥ 500 | CCOC(=O)c1cnc(Nc2ccc(C(=O)NC)c(C)c2)nc1N[C@H](CO)c1ccccc1 [Compound 48, Ethyl 4-[[(1S)-2-hydroxy-1-phenyl-ethyl]amino]-2-[3-methyl-4-(methylcarbamoyl)anilino]pyrimidine-5-carboxylate] |  | 
≥ 500 | CNC(=O)c1cnc(Nc2ccc(C(F)(F)F)c(Cl)c2)nc1N[C@H](CO)c1ccccc1 [Compound 132, 2-{[3-chloro-4-(trifluoromethyl)phenyl]amino}-4-{[(1S)-2-hydroxy-1-phenylethyl]amino}-N-methylpyrimidine-5-carboxamide] |  | 
< 50 | CN1CCc2cc(Nc3ncc(-c4nnco4)c(N[C@H](CO)c4ccccc4)n3)ccc2C1=O [Compound 89, 6-[[4-[[(1S)-2-hydroxy-1-phenyl-ethyl]amino]-5-(1,3,4-oxadiazol-2-yl)pyrimidin-2-yl]amino]-2-methyl-3,4-dihydroisoquinolin-1-one] |  | 
200 to 500 | CCOC(=O)c1cnc(Nc2ccc(C(=O)O)c(OC)c2)nc1N[C@H](CO)c1ccccc1 [Compound 62, 4-[[5-ethoxycarbonyl-4-[[(1S)-2-hydroxy-1-phenyl-ethyl]amino]pyrimidin-2-yl]amino]-2-methoxy-benzoic acid] |  | 
≥ 500 | CCOC(=O)c1cnc(Nc2ccc(S(C)(=O)=O)c(F)c2)nc1N[C@H]1c2ccccc2C[C@H]1O [Compound 298, ethyl 2-(3-fluoro-4-methylsulfonyl-anilino)-4-[[(1S,2R)-2-hydroxyindan-1-yl]amino]pyrimidine-5-carboxylate] |  | 
≥ 500 | O=C(NC1CCCC1)c1cnc(Nc2ccc(C(F)(F)F)c(Cl)c2)nc1N[C@H](CO)c1ccccc1 [Compound 472, 2-{[3-chloro-4-(trifluoromethyl)phenyl]amino}-N-cyclopentyl-4-{[(1S)-2-hydroxy-1-phenylethyl]amino}pyrimidine-5-carboxamide] |  | 
200 to 500 | CCOC(=O)c1cnc(Nc2ccc(C(=O)N(C)C)c(OC)c2)nc1N[C@H](CO)c1ccccc1 [Compound 247, Ethyl 2-[4-(dimethylcarbamoyl)-3-methoxy-anilino]-4-[[(1S)-2-hydroxy-1-phenyl-ethyl]amino]pyrimidine-5-carboxylate] |  | 
